Results from patent publication US20180119123A1, “CRISPR/CAS-RELATED METHODS AND COMPOSITIONS FOR TREATING HIV INFECTION AND AIDS” (EDITAS MEDICINE, INC., priority 2015, published 2018).

Columns and labels:
[1] = tested on: human mobilized peripheral blood CD34^+ HSCs; assay: Fold change in CD34+ cell number (trypan blue count) 96 hours after Nucleofection; format: cell-based; conditions: Nucleofection with wild type Cas9 and CCR5-U43 gRNA plasmid DNA + vehicle treatment (no UM171)
Description: (§1) Human CD34^+ HSCs cells from mobilized peripheral blood (AllCells) were thawed into StemSpan Serum-Free Expansion Medium (SFEM™, StemCell Technologies) containing 100 ng/mL each of the following cytokines: human stem cell factor (SCF), thrombopoietin (TPO), and flt-3 ligand (FL) (all from Peprotech). Cells were grown for 3 days in a humidified incubator and 5% CO2 20% O2. […] The published use of UM171 involved prolonged exposure of HSCs to the small molecule for ex vivo expansion of HSCs. In the current experiment, HSCs were exposed to UM171 for 2 hours before and 24 hours after delivery of Cas9 and gRNA plasmid DNA. This UM171 treatment protocol was based on pilot studies performed by the inventors that indicated acute pre-treatment with UM171 before lentivirus vector mediated gene delivery improved HSC viability compared to HSCs treated with vehicle (dimethylsulfoxide, DMSO, Sigma) alone. […] At 96 hours after Nucleofection™, CD34^+ cells were counted for by trypan blue exclusion and divided into 3 portions for the following analyses: a) flow cytometry analysis for assessment of viability by co-staining with 7-Aminoactinomycin-D (7-AAD) and allophycocyanin (APC)-conjugated Annexin-V antibody (ebioscience); b) flow cytometry analysis for maintenance of HSC phenotype (after co-staining with phycoerythrin (PE)-conjugated anti-human CD34 antibody and fluorescein isothicyanate (FITC)-conjugated anti-human CD90, both from BD Bioscience; c) hematopoietic colony forming cell (CFC) analysis by plating 1500 cells in semi-solid methylcellulose based Methocult medium (StemCell Technologies) that supports differentiation of erythroid and myeloid blood cell colonies from HSCs and serves as a surrogate assay to evaluate HSC multipotency and differentiation potential ex vivo; d) genomic DNA analysis for detection of editing at the CCR5 locus. […]

[2] = tested on: human mobilized peripheral blood CD34^+ HSCs; assay: Viability by 7-AAD / Annexin-V flow cytometry 96 hours after Nucleofection; format: cell-based; conditions: Nucleofected with Cas9 and CCR5 gRNA plasmids after pre-treatment with UM171; 96 hours
Description: as §1

[3] = tested on: human mobilized peripheral blood CD34^+ HSCs; assay: Maintenance of HSC phenotype (CD34/CD90 co-staining, flow cytometry); format: cell-based; conditions: Cas9 and CCR5 gRNA plasmids after pre-treatment with UM171; 96 hours
Description: Human CD34^+ HSCs cells from mobilized peripheral blood (AllCells) were thawed into StemSpan Serum-Free Expansion Medium (SFEM™, StemCell Technologies) containing 100 ng/mL each of the following cytokines: human stem cell factor (SCF), thrombopoietin (TPO), and flt-3 ligand (FL) (all from Peprotech). Cells were grown for 3 days in a humidified incubator and 5% CO2 20% O2. […] The published use of UM171 involved prolonged exposure of HSCs to the small molecule for ex vivo expansion of HSCs. In the current experiment, HSCs were exposed to UM171 for 2 hours before and 24 hours after delivery of Cas9 and gRNA plasmid DNA. This UM171 treatment protocol was based on pilot studies performed by the inventors that indicated acute pre-treatment with UM171 before lentivirus vector mediated gene delivery improved HSC viability compared to HSCs treated with vehicle (dimethylsulfoxide, DMSO, Sigma) alone. After the 2-hour pretreatment with UM171, 1 million […] HSCs were Nucleofected™ with the Amaxa™ 4D Nucleofector™ device (Lonza), Program EO100 using components of the P3 Primary Cell 4D-Nucleofector Kit™ (Lonza) according to the manufacturer's instructions. […]

CD34^+ HSCs = assay: Hematopoietic colony forming cell (CFC) assay in Methocult medium; format: cell-based, human; conditions: Nucleofection with wild-type Cas9 and CCR5-U43 gRNA plasmid DNA + vehicle (no UM171); two weeks
Description: Human CD34^+ HSCs cells from mobilized peripheral blood (AllCells) were thawed into StemSpan Serum-Free Expansion Medium (SFEM™, StemCell Technologies) containing 100 ng/mL each of the following cytokines: human stem cell factor (SCF), thrombopoietin (TPO), and flt-3 ligand (FL) (all from Peprotech). Cells were grown for 3 days in a humidified incubator and 5% CO2 20% O2. […] The published use of UM171 involved prolonged exposure of HSCs to the small molecule for ex vivo expansion of HSCs. In the current experiment, HSCs were exposed to UM171 for 2 hours before and 24 hours after delivery of Cas9 and gRNA plasmid DNA. This UM171 treatment protocol was based on pilot studies performed by the inventors that indicated acute pre-treatment with UM171 before lentivirus vector mediated gene delivery improved HSC viability compared to HSCs treated with vehicle (dimethylsulfoxide, DMSO, Sigma) alone. After the 2-hour pretreatment with UM171, 1 million […] HSCs were Nucleofected™ with the Amaxa™ 4D Nucleofector™ device (Lonza), Program EO100 using components of the P3 Primary Cell 4D-Nucleofector Kit™ (Lonza) according to the manufacturer's instructions. Briefly, one million cells were suspended in Nucleofector™ solution and the following amounts of plasmid DNA were added to the cell suspension: 1250 ng plasmid expressing CCR5 gRNA (CCR5-U43) from the human U6 promoter and 3750 ng plasmid expressing wild-type S. pyogenes Cas 9 transcriptionally regulated by the CMV promoter. After Nucleofection™, cells were plated into Stemspan-SFEM™ supplemented with SCF, TPO, FL and 40 nM UM171. After overnight incubation, HSCs were plated in Stemspan-SFEM™ plus cytokines without UM171. At 96 hours after Nucleofection™, CD34^+ cells were counted for by trypan blue exclusion and divided into 3 portions for the following analyses: a) flow cytometry analysis for assessment of viability by co-staining with 7-Aminoactinomycin-D (7-AAD) and allophycocyanin (APC)-conjugated Annexin-V antibody (ebioscience); b) flow cytometry analysis for maintenance of HSC phenotype (after co-staining with phycoerythrin (PE)-conjugated anti-human CD34 antibody and fluorescein isothicyanate (FITC)-conjugated anti-human CD90, both from BD Bioscience; c) hematopoietic colony forming cell (CFC) analysis by plating 1500 cells in semi-solid methylcellulose based Methocult medium (StemCell Technologies) that supports differentiation of erythroid and myeloid blood cell colonies from HSCs and serves as a surrogate assay to evaluate HSC multipotency and differentiation potential ex vivo; d) genomic DNA analysis for detection of editing at the CCR5 locus. Genomic DNA was extracted from HSCs 96 hours after Nucleofection™, and CCR5 locus-specific PCR reactions were performed.
To evaluate maintenance of HSC potency and differentiation potential, two weeks after plating CD34^+ HSCs in CFC assays, hematopoietic activity was quantified based on scoring the HSC progeny by enumerating the total number of hematopoietic colony forming units (CFU) and the frequencies of specific blood cell phenotypes, including: mixed myeloid/erythroid (Granulocyte-erythroid-monocyte macrophage, CFU-GEMM), myeloid (CFU-macrophage (M), granulocyte-macrophage (CFU-GM)) and erythroid (CFU-E) colonies. CD34^+ HSCs that were Nucleofected™ after UM171 pre-treatment maintained CFC potential compared to un-Nucleofected™ HSCs (Table 12). In contrast, CD34^+ HSCs that were Nucleofected™ without UM171 pre-treatment had reduced CFC potential (lower total CFC counts and reduced numbers of mixed-phenotype colonies (CFU-GEMM) and erythroid colonies (CFU-E)) in comparison to un-Nucleofected™ CD34^+ HSCs.
Human CD34^+ HSCs cells from mobilized peripheral blood (AllCells) were thawed into StemSpan Serum-Free Expansion Medium (SFEM, StemCell Technologies) containing 100 ng/mL each of the following cytokines: human stem cell factor (SCF), thrombopoietin (TPO), and flt-3 ligand (FL) (all from Peprotech). […]

“GCUGCCGCCCAGUGGGACUU (chemistry not given here) [CCR5-U43, S. pyogenes gRNA targeting CCR5; delivered as U6-promoter plasmid with Cas9 plasmid]” was tested, and the “Fold change in cell number of CD34^+ cells (96 hours vs. time 0 cell number)” value [1] was 0.6, the “viability (7-AAD^− AnnexinV^-)” value [2] was greater than 93% and the “co-expression of CD34 and CD90” value [3] was “maintained co-expression of CD34 and CD90”. The “Number of colony forming units: E” value (CD34^+ HSCs) was 18 colony forming units per 1500 CD34^+ HSCs plated, the “Number of colony forming units: G” value (CD34^+ HSCs) was 22 colony forming units per 1500 CD34^+ HSCs plated and the “Number of colony forming units: GEMM” value (CD34^+ HSCs) was 1 colony forming units per 1500 CD34^+ HSCs plated. For the same sequence, the “Number of colony forming units: GM” value (CD34^+ HSCs) was 1 colony forming units per 1500 CD34^+ HSCs plated, the “Number of colony forming units: M” value (CD34^+ HSCs) was 6 colony forming units per 1500 CD34^+ HSCs plated and the “Number of colony forming units: Total” value (CD34^+ HSCs) was 28 colony forming units per 1500 CD34^+ HSCs plated.
